{"source": "patent US20100130581A1", "about": "“COMPOUNDS AND METHODS FOR THE TREATMENT OF PAIN” (THE UNIVERSITY OF QUEENSLAND, priority 2006, published 2010)", "key": {"[1]": {"system": "μ- and δ-opioid receptors", "assay": "Cell based assay of cAMP inhibition in forskolin treated SH-SY5Y cells", "conditions": "for Inhibit c-AMP (%): SH-SY5Y cell line, normalised to the % of cAMP inhibition seen by native endomorphin-1", "protocol": "SH-SY5Y cells endogenously expressing μ- and δ-opioid receptors were cultured (100 μl) in a 96 well-plate and incubated (usually overnight) until 80% confluent. Once cells were ready for assay, Endo-1, Endo-2 and derivatives/analogs were diluted in DMEM culture medium containing 30 μM forskolin. The diluted derivatised endomorphins or derivatised endomorphin analogs were then applied to separate wells for agonist studies and co-incubated for antagonist studies. Cells were incubated with derivatised endomorphins or derivatised endomorphin analogs at 37° C. for 30 minutes, medium was aspirated and cells were lysed using lysis buffer from a cAMP Biotrak EIA kit (Amersham, Buckinghamshire, UK). An anti-cAMP antibody was added to the lysate, and the mixture incubated at 4° C. for 2 hours followed by the addition of a cAMP peroxidase conjugate, and incubated at 4° C. for a further hour. A 3,3′5,5′-tetramethylbenzidine (TMB) substrate provided by the Biotrak EIA kit was then incubated with cell lysate for 1 hour and finally 1 […] was added to facilitate a colour change, which is proportional to the amount of cAMP captured. A cAMP standard curve from 0 to 3200 fmol was also generated concurrently. Plates were then read by a plate reader at 450 nm and compared back to the cAMP standard curve. All data are compared to the maximum cAMP response to forskolin and are represented as the mean+/−standard error of three experiments performed in triplicate. All data are plotted using PRISM program (GraphPad, San Diego, Calif.) (see FIGS. 2a and 2b)."}, "Caco-2 cells": {"system": "Caco-2 cells", "assay": "Caco-2 permeability study", "protocol": "Approximately 1×10^6 cells/mL concentration of cells were seeded onto polycarbonate cell culture inserts (Transwell®; 0.45 μm×6.5 mm diameter). DMEM cell culture media was supplemented with 10% FBS, 1% L-glutamine, 1% nonessential amino acids and 1% 100 U/mL penicillin/streptomycin. The media was changed every other day (0.6 mL in the basolateral chamber and 0.1 mL to the apical chamber) and the monolayers were used between days 21-28. Transepithelial electrical resistance (TEER) of the monolayer was measured using the Millicell-ERS system (Millipore Corporation, Bedford, Mass.). C^14-mannitol permeability was used to monitor the integrity of the Caco-2 monolayers.\nPrior to beginning the experiments, the monolayers were washed with pre-warmed HBSS-Hepes buffer, incubated for 30 min. At the start of the experiment the apical chamber was emptied and 100 μL of either the derivatised endomorphin or derivatised endomorphin analog solution was added. The permeability study was performed in triplicate at 37° C. shaking in a Heridolf Titramax shaking at 400 rpm. […] Permeability coefficients (Papp) were calculated from data generated by LC/MS quantitative analysis of all samples using a gradient HPLC system (Shimadzu LC-10AT system) coupled to a triple quadrupole mass spectrometer (PE Sciex API 3000) operating in SIM mode with positive ion electrospray. The mobile phase was a mixture of solvent A (0.1% formic acid in water) and solvent B (0.1% formic acid in 90% acetonitrile/water). A C18 column, 5 μM, 50×2.0 mm (Phenomex®) was used at a flow rate 0.3 mL/min with a gradient from 100% A to 90% B in 7 minutes, incorporating a splitter (1:10).\nThe permeability of the sugars themselves was also examined."}, "[2]": {"assay": "In vivo biodistribution of 3H-labelled peptide, oral", "set-up": "species or system rat", "conditions": "rats, oral administration", "protocol": "After 15, 30 and 60 minutes, 5 rats were sacrificed and the brain, liver, blood, kidneys, stomach, spleen, small intestine and large intestine were removed following oral administration. The organs were subsequently homogenised in buffer and a sample removed and placed in tissue solubiliser for 3 days. After this time a small sample was removed and treated with bleach over night to remove any colour from the solution and the resulting sample dissolved in scintillation fluid and the radioactivity measured by liquid scintillation."}, "[3]": {"assay": "In vivo biodistribution of 3H-labelled peptide, intravenous", "set-up": "species or system rat", "conditions": "rats, i.v.", "protocol": "FIG. 5(a)-(c) are graphical representations showing in vivo bio-distribution of 1 in rats. […] After 15, 30 and 60 minutes, 5 rats were sacrificed and the brain FIG. 5(a), liver FIG. 5(b) and blood FIG. 5(c) of each rat were removed following intravenous administration. The organs were subsequently homogenised in buffer and a sample removed and placed in tissue solubiliser for 3 days. After this time a small sample was removed and treated with bleach over night to remove any colour from the solution and the resulting sample dissolved in scintillation fluid and the radioactivity measured by liquid scintillation. […] The apparent increase in blood levels of the parent peptide after 60 minutes is likely due to the breakdown of the compound and release of the radiolabeled acetate into the blood stream."}, "μ-opioid receptor": {"target": "T1, μ-opioid receptor (Homo sapiens, UniProt P35372)", "T1 construct": "SH-SY5Y cells endogenously expressing μ- and δ-opioid receptors; endogenous in cells; host or cells: SH-SY5Y cells", "T1 sequence (P35372 whole entry)": "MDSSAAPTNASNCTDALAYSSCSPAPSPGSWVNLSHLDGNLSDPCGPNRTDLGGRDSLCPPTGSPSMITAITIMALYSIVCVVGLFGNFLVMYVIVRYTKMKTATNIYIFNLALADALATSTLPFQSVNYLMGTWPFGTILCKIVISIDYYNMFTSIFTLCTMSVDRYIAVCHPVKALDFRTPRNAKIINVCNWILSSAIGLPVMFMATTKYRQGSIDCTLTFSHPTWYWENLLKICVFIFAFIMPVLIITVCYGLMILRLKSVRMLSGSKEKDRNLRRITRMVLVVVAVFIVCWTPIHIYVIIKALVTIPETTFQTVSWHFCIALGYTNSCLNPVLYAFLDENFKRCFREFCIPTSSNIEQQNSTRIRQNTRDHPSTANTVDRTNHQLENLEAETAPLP", "assay": "Whole cell-based binding assay, displacement of 3H-DAMGO", "protocol": "Media was removed and cells were washed with PBS before pre-incubation in 300 μL of binding buffer. Binding studies were performed with 100 μL of appropriate concentrations of ^3H-labeled DAMGO (a selective μ-opioid receptor agonist) and 100 μL of competitor or blank in binding buffer at 37° C. for 60 min. Competition binding experiments were performed using […] of ^3H-labelled DAMGO in the absence or presence of increasing concentrations of unlabeled derivatised endomorphins or derivatised endomorphin analogs. A 1 μM excess of unlabelled DAMGO was used to determine non-specific binding. Following incubation, the cells were washed with PBS and recovered from culture plates using 500 μL of […] before transfer to scintillation vials. Liquid scintillation cocktail (Ultima Gold, Packard, Meriden, USA) was added to these vials for counting in a liquid scintillation analyser. Data are expressed as the mean±SEM of % specific binding of triplicate determinations performed on at least three independent plates of cells. Data were plotted using the one-site competition functions of the PRISM program (Graphpad Inc., San Diego, USA) (see FIGS. 1a, 1b and 7)."}, "[4]": {"assay": "Enzymatic stability study in homogenized Caco-2 cells", "format": "in vitro ADME", "conditions": "human, pH 7.4; Caco-2 cell homogenate, 37° C., 100 μM", "protocol": "(§1) Approximately 1×10^5 cells/mL concentration of cells were seeded onto the 96 well plate. […] The media was changed every other day. 21-28 days old cells were used for the experiments. the media was removed from the wells and each well washed with 100 μL 0.2% EDTA solution followed by washing three times with Hanks' balanced salt solution (HBSS) containing 25 mM Hepes (pH 7.4). Finally, 100 μL of this buffer was placed in each well and the plate cooled in ice. The monolayer of cells in each well was then disrupted by 2×1 second pulses with a Sonics Vibracell ultrasonic processor set at an amplitude of 30. The cell debris was then removed by centrifugation of the plate at 2000 rpm for 5 min. 80 μL cell homogenate supernatant of each well was then transferred to a clean 96 well plate, and 20 μL of HBSS-Hepes was added. Three of the wells' contents were set aside and assayed for total protein content using the Lowry assay. The compounds to be tested were dissolved in HBSS-Hepes buffer to a concentration of 200 μM.\n(§2) This assay was performed at 37° C. […] The stability assay on each compound was conducted in triplicate and the concentrations averaged for each time point."}, "[5]": {"system": "homogenate of Caco-2 cells", "assay": "Enzymatic stability study in homogenized Caco-2 cells", "format": "in vitro ADME", "conditions": "Caco-2 cell line; graded by number of ♦ (up to 5), key not given", "protocol": "as §1, §2"}, "[6]": {"assay": "Blood plasma concentration after oral gavage", "format": "in vivo, rat", "conditions": "male rats", "protocol": "In another experiment, Lac-endo was fed via oral gavage to male rats and the concentration of the compound in blood plasma measured over time. Sprague-dawley rats (average wt 300 g) were gavaged with 500 μL of a 20 mM Lac-endo or Endomorphin solution in water. Blood samples taken from the tail vein after 30, 60 and 90 min. The blood was centrifuged to remove red blood cells, and in a 100 μL sample of plasma was added to 300 μL of acetonitrile to precipitate proteins. The suspension was centrifuged a second time and the supernatant analysed by LC-MS."}, "Plasma stability assay": {"assay": "Plasma stability assay", "format": "in vitro ADME", "conditions": "male, human, plasma at 37° C.", "protocol": "To measure the enzymatic stability of endomorphin-1 analogs in plasma, blood was taken from a healthy volunteer and the blood was centrifuged at 1700 rpm for 30 minutes to remove blood cells. The plasma was placed into a water bath heated at 37° C. and Endomorphin-1 and analog was added to give final concentrations of 0.7 mg/mL. Samples were incubated for varying time periods between 0 and 180 minutes. 50 μL of sample was taken at each time-point and 75 μL of acetonitrile was added to quench any enzyme activity. The samples were then placed on ice and upon completion of the assay, all samples were centrifuged at 9000 rpm for 3 minutes to remove all precipitated plasma proteins. The amount of intact peptide remaining in the supernatent of each sample was determined using RP HPLC by measuring the area under the curve of the peak at the appropriate retention time compared to a standard curve of concentration for each peptide (see FIG. 8)."}}, "note": "Where a SMILES comes first, the peptide text is derived from it. [ ]: non-standard residue; d: D form. ξ: configuration not given here. ξAoc(2) = CCCCCCC(N)C(=O)O", "data": [{"smiles": "CCCCCCC(N)C(=O)N[C@@H](Cc1ccc(O)cc1)C(=O)N1CCC[C@H]1C(=O)N[C@@H](Cc1c[nH]c2ccccc12)C(=O)N[C@@H](Cc1ccccc1)C(N)=O", "note": "(stereo partly shown) [Compound 1] (H-[ξAoc(2)]YPWF-NH2)", "values": [{"measurement": "Inhibit c-AMP (%)", "setting": "[1]", "result": 97, "unit": "%"}, {"measurement": "apparent permeability (Papp), in words", "setting": "Caco-2 cells; Caco-2 cell monolayers, compared to parent peptide", "result": "significantly improved apparent permeability compared to the parent peptide"}, {"measurement": "delivery to the brain, in words", "setting": "[2]", "result": "evidence of delivery of the peptide to the brain"}, {"measurement": "increase in serum levels compared to the native peptide", "setting": "[2]; over the time of the experiment", "result": 6, "unit": "fold"}, {"measurement": "accumulation in the liver, in words", "setting": "[3]", "result": "accumulate less in the liver than the parent peptide"}, {"measurement": "label appearing in the brain", "setting": "[3]; after 15 minutes", "result": "> 10", "unit": "%"}, {"measurement": "Ki", "setting": "μ-opioid receptor", "result": 2.45, "unit": "nM"}, {"measurement": "Ki / binding affinity, in words", "setting": "μ-opioid receptor; displacement of 3H-DAMGO, FIG. 1", "result": "low nanomolar range"}, {"measurement": "half-life", "setting": "[4]", "result": 25.5, "unit": "min"}]}, {"smiles": "NC(=O)[C@H]1O[C@@H](NC(=O)[C@H](Cc2ccccc2)NC(=O)[C@H](Cc2c[nH]c3ccccc23)NC(=O)[C@@H]2CCCN2C(=O)[C@@H](N)Cc2ccc(O)cc2)[C@H](O)[C@@H](O)[C@@H]1O", "note": "[Compound 18]", "values": [{"measurement": "Permeability", "setting": "Caco-2 cells; Caco-2 cell line, graded by number of ♦ (up to 5), key not given", "result": "♦"}, {"measurement": "Enzymatic stability 2 h", "setting": "[5]", "result": "♦"}]}, {"smiles": "NC(=O)[C@H](Cc1ccccc1)NC(=O)[C@H](Cc1c[nH]c2ccccc12)NC(=O)[C@@H]1CCCN1C(=O)[C@H](Cc1ccc(O)cc1)NC(=O)CCC(=O)N[C@@H]1O[C@H](CO)[C@@H](O[C@@H]2O[C@H](CO)[C@H](O)[C@H](O)[C@H]2O)[C@H](O)[C@H]1O", "note": "[Compound 12]", "values": [{"measurement": "absorption of Lac-endo in presence of galactose", "setting": "Caco-2 cells; Caco-2 monolayers, 20 mM galactose", "result": "some inhibition of absorption but less than lactose"}, {"measurement": "absorption of Lac-endo in presence of glucose", "setting": "Caco-2 cells; Caco-2 monolayers, 20 mM glucose", "result": "doesn't inhibit the absorption"}, {"measurement": "absorption of Lac-endo in presence of lactose", "setting": "Caco-2 cells; Caco-2 monolayers, 20 mM lactose", "result": "severely inhibits the absorption"}, {"measurement": "Tmax", "setting": "[6]; Sprague-Dawley, rat, plasma, 10 µmol/rat, read-out: time of highest recorded concentration in blood (converted)", "result": 60, "unit": "min"}, {"measurement": "absorption across the GI tract, in words", "setting": "[6]; 500 μL of 20 mM solution", "result": "significant absorption of the compound across the GI tract"}]}, {"smiles": "Cc1cc(O)cc(C)c1C[C@H](N)C(=O)N1CCC[C@H]1C(=O)N[C@@H](Cc1c[nH]c2ccccc12)C(=O)N[C@@H](Cc1ccccc1)C(N)=O", "note": "[(Dmt^1)Endo, reference compound]", "values": [{"measurement": "IC50", "setting": "[1]; Efficacy SH-SY5Y cell line", "result": 0.156, "unit": "nM"}, {"measurement": "Inhibit c-AMP (%)", "setting": "[1]", "result": 160, "unit": "%"}, {"measurement": "half-life at 0.7 mg/mL", "setting": "Plasma stability assay", "result": 4.18, "unit": "min"}, {"measurement": "Ki", "setting": "μ-opioid receptor", "result": 0.058, "unit": "nM"}, {"measurement": "Enzymatic stability 2 h", "setting": "[5]", "result": "♦"}, {"measurement": "half-life at 100 μM", "setting": "[4]", "result": 8.98, "unit": "min"}]}]}
